# pIC50: −log10 of the molar value.
# Key:
# [1] = molecular target: T1, 6-phosphofructo-2-kinase/fructose-2,6-bisphosphatase 3 (Homo sapiens, UniProt Q16875); assay: Inhibition of iPFK2 (unknown origin) assessed as reduction in enzyme-mediated fructose-6-phosphate phosphorylation by measuring NADH absorbance pre-incubated for 10 mins before ATP/substrate addition followed by incubation for 1 hr by UV-Visible spectrometry based iPFK-2/PPI-PFK coupled enzyme assay
# [2] = molecular target: T1, 6-phosphofructo-2-kinase/fructose-2,6-bisphosphatase 3; assay: Inhibition of iPFK2 (unknown origin) assessed as reduction in enzyme-mediated fructose-6-phosphate phosphorylation by measuring ATP consumption incubated for 3 hrs by luciferase-luciferin-coupled chemiluminescence assay
# T1 sequence (Q16875 whole entry): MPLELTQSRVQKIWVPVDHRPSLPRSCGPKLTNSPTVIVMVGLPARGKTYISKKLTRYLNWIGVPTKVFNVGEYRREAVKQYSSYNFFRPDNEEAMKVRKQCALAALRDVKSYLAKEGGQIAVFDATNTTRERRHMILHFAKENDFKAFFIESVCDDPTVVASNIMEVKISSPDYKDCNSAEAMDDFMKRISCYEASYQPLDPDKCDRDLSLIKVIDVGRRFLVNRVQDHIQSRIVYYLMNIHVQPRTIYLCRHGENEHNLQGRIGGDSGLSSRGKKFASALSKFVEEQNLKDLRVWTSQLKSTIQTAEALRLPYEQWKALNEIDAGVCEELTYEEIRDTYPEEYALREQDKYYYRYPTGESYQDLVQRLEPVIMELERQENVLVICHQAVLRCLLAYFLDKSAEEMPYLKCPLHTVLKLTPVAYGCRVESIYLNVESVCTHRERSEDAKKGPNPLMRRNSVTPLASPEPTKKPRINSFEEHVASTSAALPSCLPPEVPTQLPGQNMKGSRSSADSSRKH
SMILES,pIC50 [1],pIC50 [2]
Cc1nc(NC(C)c2cccc(OCC#N)c2)cc(-c2ccc3ncsc3c2)n1 (stereo not given),6.30,–
COc1cccc([C@H](C)Nc2cc(-c3ccc4ncoc4c3)nc(C)n2)c1,–,< 6.00
COc1cccc([C@H](C)Nc2cc(-c3ccc4ncn(C)c4c3)nc(C)n2)c1,–,< 6.00
COc1cccc(-c2cc(NC3CCCc4ccccc43)nc(C)n2)c1 (stereo not given),–,< 6.00
COCC(C)Nc1cc(-c2ccc3ncsc3c2)nc(C)n1 (stereo not given),–,< 6.00
Cc1nc(N[C@@H]2CCCc3ccccc32)cc(-c2ccc3[nH]ncc3c2)n1,–,< 6.00
COc1cccc(-c2cc(NC(C)c3cccc(S(=O)(=O)NCC(=O)O)c3)nc(C)n2)c1 (stereo not given),–,< 6.00
COc1cccc([C@H](C)Nc2cc(-c3cc(OC)c(OC)c(OC)c3)nc(C)n2)c1,–,< 6.00
CCOC(=O)Cc1coc2ccc(-c3cc(N[C@@H]4CCCc5ccccc54)nc(C)n3)cc12,–,< 6.00
Cc1nc(N[C@@H]2CCCc3ccccc32)cc(-c2cccc(Cl)c2)n1,–,6.30
COc1cccc([C@H](C)Nc2cc(-c3ccccc3F)nc(C)n2)c1,–,< 6.00
Cc1nc(N[C@@H]2CCCc3ccccc32)cc(-c2cccc3cc[nH]c23)n1,–,< 6.00
CCC(C)Nc1cc(-c2ccc3ncsc3c2)nc(C)n1 (stereo not given),–,< 6.00
CCCCCNc1cc(-c2ccc3ncsc3c2)nc(C)n1,–,< 6.00
Cc1nc(NC(C)c2cccc(OCc3ccccc3)c2)cc(-c2ccc3ncsc3c2)n1 (stereo not given),–,< 6.00
COc1cccc([C@@H](C)Nc2cc(-c3ccc4ncsc4c3)nc(C)n2)c1,–,< 6.00
Cc1nc(NC(C)c2cccc(OCc3cccnc3)c2)cc(-c2ccc3ncsc3c2)n1 (stereo not given),–,6.30
Cc1nc(N[C@@H]2CCCc3ccccc32)cc(-c2cccc(OC(F)(F)F)c2)n1,–,< 6.00
Cc1nc(N[C@@H]2CCCc3ccccc32)cc(-c2cccc3c2ccn3C)n1,–,< 6.00
COCc1cccc(-c2cc(N[C@@H]3CCCc4ccccc43)nc(C)n2)c1,–,< 6.00
COc1cccc(-c2cc(NC(CCO)c3cccc(OC)c3)nc(C)n2)c1 (stereo not given),–,< 6.00
Cc1nc(N[C@@H]2CCCc3ccccc32)cc(-c2cccc3[nH]ccc23)n1,–,< 6.00
Cc1nc(NC(C)c2cccc(-c3cnn(C)c3)c2)cc(-c2ccc3c(c2)N(C)CCO3)n1 (stereo not given),–,6.30
CCOC(=O)CC(Nc1cc(-c2cccc(OC)c2)nc(C)n1)c1cccc(OC)c1 (stereo not given),–,< 6.00
Cc1nc(NC(C)c2cccc(OCC(=O)N3CCC3)c2)cc(-c2ccc3ncsc3c2)n1 (stereo not given),< 6.00,–

SMILES,pIC50 [1],pIC50 [2]
COc1cccc([C@H](C)Nc2cc(-c3cc(OC)ccc3Cl)nc(C)n2)c1,–,< 6.00
Cc1nc(NC(C)c2cccc(-c3cnn(C)c3)c2)cc(-c2ccc3c(c2)OCCO3)n1 (stereo not given),–,< 6.00
Cc1nc(N[C@@H](C)c2cccc(-c3cccn3C)c2)cc(-c2ccc3ncsc3c2)n1,–,< 6.00
Cc1nc(N[C@@H]2CCCc3ccccc32)cc(-c2ccc3c(c2)N(CCO)CC3)n1,–,< 6.00
COc1cccc([C@H](C)Nc2cc(-c3cccc(N(C)C)c3)nc(C)n2)c1,–,< 6.00
COc1cccc([C@H](C)Nc2cc(-c3ccc4cc[nH]c4c3)nc(C)n2)c1,–,< 6.00
COc1cccc(-c2cc(NC(C)c3cccc(NCC(=O)O)c3)nc(C)n2)c1 (stereo not given),–,< 6.00
Cc1nc(NC(C)c2cccc(S(N)(=O)=O)c2)cc(-c2ccc3ncsc3c2)n1 (stereo not given),6.30,–
Cc1nc(NC(C)c2cccc(OCc3csc(C)n3)c2)cc(-c2ccc3ncsc3c2)n1 (stereo not given),–,6.30
Cc1nc(NC(C)c2cccc(OCC(=O)N3CCCC3)c2)cc(-c2ccc3ncsc3c2)n1 (stereo not given),< 6.00,–
Cc1nc(NC(C)c2cccc(-c3ccoc3)c2)cc(-c2ccc3occ(C)c3c2)n1 (stereo not given),–,6.30
Cc1nc(N[C@@H](C)c2cccc(-c3cc[nH]n3)c2)cc(-c2ccc3ncsc3c2)n1,–,6.30
Cc1nc(N[C@@H]2CCCc3ccccc32)cc(-c2ccc3nc[nH]c3c2)n1,–,< 6.00
Cc1nc(NC(C)c2cccc(-c3ccc(F)nc3C)c2)cc(-c2ccc3ncsc3c2)n1 (stereo not given),–,6.30
CCc1ccc(-c2cc(NC(C)c3cccc(-c4cnn(C)c4)c3)nc(C)n2)cc1 (stereo not given),–,6.30
CC(=O)N1CCOc2ccc(-c3cc(N[C@@H]4CCCc5ccccc54)nc(C)n3)cc21,–,< 6.00
Cc1nc(NC(C)c2cccc(-c3cnn(C)c3)c2)cc(-c2cccc(O)c2)n1 (stereo not given),–,6.30
Cc1nc(NC(C)c2cccc(-c3ccsc3)c2)cc(-c2ccc3occ(C)c3c2)n1 (stereo not given),–,< 6.00
COc1cccc([C@H](C)Nc2cc(-c3ccc(F)cc3)nc(C)n2)c1,–,< 6.00
COc1cccc([C@H](C)Nc2cc(-c3cccc4[nH]ccc34)nc(C)n2)c1,–,< 6.00
Cc1nc(NC(C)c2cccc(OCC(=O)NCCN(C)C)c2)cc(-c2ccc3ncsc3c2)n1 (stereo not given),–,6.30
Cc1nc(NC2CCOc3ccc([N+](=O)[O-])cc32)cc(-c2ccc3ncsc3c2)n1 (stereo not given),–,< 6.00
CCc1coc2ccc(-c3cc(NC(C)c4cccc(-c5cnn(C)c5)c4)nc(C)n3)cc12 (stereo not given),–,< 6.00
COC(=O)CNc1cccc(CNc2cc(-c3cccc(OC)c3)nc(C)n2)c1,–,< 6.00
CNc1ccc(-c2cc(N[C@@H]3CCCc4ccccc43)nc(C)n2)cc1,–,6.30

SMILES,pIC50 [1],pIC50 [2]
COc1cccc([C@H](C)Nc2cc(-c3ccc(N(C)C)cc3)nc(C)n2)c1,–,< 6.00
Cc1nc(NC(C)c2cc(O)ccc2F)cc(-c2ccc3ncsc3c2)n1 (stereo not given),< 6.00,–
Cc1nc(NCCc2ccccn2)cc(-c2ccc3ncsc3c2)n1,–,< 6.00
CC(=O)Nc1ccc2c(c1)C(Nc1cc(-c3ccc4ncsc4c3)nc(C)n1)CCO2 (stereo not given),–,< 6.00
CCC(Nc1cc(-c2cccc(OC)c2)nc(C)n1)c1cccc(OC)c1 (stereo not given),–,< 6.00
Cc1nc(NC(C)c2cccc(OCCF)c2)cc(-c2ccc3ncsc3c2)n1 (stereo not given),–,6.30
COc1cccc([C@H](C)Nc2cc(-c3cccc(Cl)c3)nc(C)n2)c1,–,6.30
Cc1nc(NC(C)c2cccc(OCCCC(=O)N(C)C)c2)cc(-c2ccc3ncsc3c2)n1 (stereo not given),–,6.30
Cc1nc(NCCc2ccc(O)cc2)cc(-c2ccc3ncsc3c2)n1,–,< 6.00
COc1cccc([C@@H](C)Nc2cc(-c3ccc4occ(C)c4c3)nc(C)n2)c1,–,< 6.00
Cc1nc(NCCC(C)C)cc(-c2ccc3ncsc3c2)n1,–,6.30
CCOC(=O)CCNC(=O)CC(Nc1cc(-c2cccc(OC)c2)nc(C)n1)c1cccc(OC)c1 (stereo not given),–,< 6.00
COC(=O)CN1CCc2ccc(-c3cc(N[C@@H]4CCCc5ccccc54)nc(C)n3)cc21,–,< 6.00
Cc1nc(NC(C)c2cccc(N3CCOCC3)c2)cc(-c2ccc3ncsc3c2)n1 (stereo not given),–,6.30
CCCCCC(C)Nc1cc(-c2ccc3ncsc3c2)nc(C)n1 (stereo not given),–,< 6.00
Cc1nc(NC(C)c2cccc(OCCn3cccc3)c2)cc(-c2ccc3ncsc3c2)n1 (stereo not given),–,< 6.00
Cc1nc(NC(C)c2cccc(OCC(=O)N3CC3C)c2)cc(-c2ccc3ncsc3c2)n1 (stereo not given),6.30,–
Cc1nc(N[C@@H]2CCCc3ccccc32)cc(-c2ccc3c(c2)NCC3)n1,–,< 6.00
Cc1nc(NC(C)c2cccc(-c3cnn(C)c3)c2)cc(-c2ccc3c(c2)CCO3)n1 (stereo not given),–,6.30
Cc1nc(NC(C)c2cccc(OCC(=O)N(C)C)c2)cc(-c2ccc3ncsc3c2)n1 (stereo not given),6.30,–
COc1cccc(-c2cc(NC(CC(=O)NCCCN(C)C)c3cccc(OC)c3)nc(C)n2)c1 (stereo not given),–,< 6.00
COc1ccc(F)c(CNc2cc(-c3ccc4ncsc4c3)nc(C)n2)c1Cl,–,< 6.00
COC(=O)CN(C(=O)OC(C)(C)C)S(=O)(=O)c1cccc(C(C)Nc2cc(-c3cccc(OC)c3)nc(C)n2)c1 (stereo not given),–,< 6.00
Cc1nc(N[C@@H](C)c2cccc(-c3ccccc3)c2)cc(-c2ccc3ncsc3c2)n1,–,< 6.00
Cc1nc(NC2CC(C)(C)Oc3ccccc32)cc(-c2ccc3ncsc3c2)n1 (stereo not given),–,6.30

SMILES,pIC50 [1],pIC50 [2]
Cc1cc(COc2cccc([C@@H](C)Nc3cc(-c4ccc5ncsc5c4)nc(C)n3)c2)n(C)n1,< 6.00,–
CCn1cnc2ccc(-c3cc(N[C@@H]4CCCc5ccccc54)nc(C)n3)cc21,–,< 6.00
COc1cccc(C(CCC#N)Nc2cc(-c3ccc4ncsc4c3)nc(C)n2)c1 (stereo not given),–,< 6.00
Cc1nc(NC(C)c2cccc(Br)c2)cc(-c2ccc3ncsc3c2)n1 (stereo not given),–,6.30
Cc1nc(N[C@@H]2CCCc3ccccc32)cc(-c2ccc3c(ccn3C)c2)n1,–,6.30
COc1cccc([C@H](C)Nc2cc(-c3cccc4cc[nH]c34)nc(C)n2)c1,–,< 6.00
COc1cccc([C@H](C)Nc2cc(-c3ccc4[nH]ncc4c3)nc(C)n2)c1,–,< 6.00
Cc1nc(N[C@@H]2CCCc3ccccc32)cc(-c2ccc3c(c2)NCCO3)n1,–,6.30
Cc1nc(NC(C)c2cccc(OCCCN(C)C)c2)cc(-c2ccc3ncsc3c2)n1 (stereo not given),–,6.30
COc1cccc(-c2cc(N[C@H]3CCCc4ccccc43)nc(C)n2)c1,–,< 6.00
Cc1nc(NC(C)c2cccc(OCC(=O)N3CCCCC3)c2)cc(-c2ccc3ncsc3c2)n1 (stereo not given),6.30,–
Cc1nc(NC(C)c2cccc(OCc3ccn(C)n3)c2)cc(-c2ccc3occc3c2)n1 (stereo not given),–,6.30
Cc1nc(N[C@@H](C)c2cccc(-c3ccccc3)c2)cc(-c2ccc3occ(C)c3c2)n1,–,6.30
Cc1nc(N[C@@H]2CCCc3ccccc32)cc(-c2ccc3c(c2)OC(F)(F)O3)n1,–,< 6.00
Cc1nc(NCCC2=CCCCC2)cc(-c2ccc3ncsc3c2)n1,–,6.30
Cc1nc(NC(C)c2cccc(OCC(O)CF)c2)cc(-c2ccc3ncsc3c2)n1 (stereo not given),–,6.30
COc1cccc(-c2cc(Nc3cccc4ccccc34)nc(C)n2)c1,–,< 6.00
Cc1nc(N[C@H]2CCCc3ccccc32)cc(-c2ccc3ncsc3c2)n1,–,6.30
CCCOc1cccc(C(C)Nc2cc(-c3ccc4ncsc4c3)nc(C)n2)c1 (stereo not given),–,< 6.00
COc1cccc([C@H](C)Nc2cc(-c3ccccc3C)nc(C)n2)c1,–,< 6.00
Cc1nc(N[C@@H]2CCCc3ccccc32)cc(-c2ccc3c(c2)N(CCO)CCO3)n1,–,< 6.00
Cc1nc(N[C@@H]2CCCc3ccccc32)cc(-c2ccc3cn[nH]c3c2)n1,–,< 6.00
Cc1nc(N[C@@H]2CCCc3ccccc32)cc(-c2ccc3occ(CC(=O)NCCO)c3c2)n1,–,< 6.00
COc1cccc([C@H](C)Nc2cc(-c3ccccc3Cl)nc(C)n2)c1,–,< 6.00
Cc1nc(N[C@@H](C)C(C)(C)C)cc(-c2ccc3ncsc3c2)n1,–,< 6.00
